In article PMC7098565 (PLoS ONE, 2020):
Values joined by “and” are separate entries in the source; they are usually repeats but may differ in a detail not shown here. Identical values can stand only once. Like-named read-outs stand apart in the source and are kept apart here.

What was measured:
[1] = Pharmacokinetics in plasma and tumor from melanoma-bearing mice (LC-MS/MS); assay type: in vivo; details: single oral dose 60 mg/kg; for concentration at 1 h / concentration at 3 h: male, C57BL/6NCrl, mouse, plasma, po; for concentration at 1 h / concentration at 3 h / Concentration in Tumor: 60 mg/kg
Experimental: At 1h, 3h and 8h after the dosing, 5 mice were decapitated, respectively, for collecting plasma and tumor tissues. All plasma samples were centrifuged for 10 min at 3000 g, separated and stored at -20 °C for followed analysis. The tumor tissues were homogenated in water (w/v = 1:4). The LC-MS/MS system consisted of an Agilent 1100 series HPLC system (Agilent Technologies, Waldbronn, USA) and a TSQ Quantum Assess tandem mass spectrometer (Thermo Electron Corporation, San Jose, CA, USA) equipped with ESI ion source operation in the positive mode. Data acquisition and processing were accomplished using the Xcaliber workstation. The chromatography separation was performed on a Waters symmetry CLU columns (150 × 2.1 mm i.e., 3.5 am, Warders, USA) with the flow rate of 0.2 ml/min in isocratic elution. The mobile phase consisted of acetonitrile-methanol-water (50:30:20, v/v/v) containing 0.1 mm ammonium acetate and 0.01% glacial acetic acid. The selective reactions monitoring mode was used to detect the analyses. […] The spray voltage was 4 kv. Sheath gas and auxilinry gas were 30 and 5 psi, respectively. The capillary temperature was 350 °C and argon gas pressure was 1.5 milli-Torr.

[2] = tested on: CT26.WT; assay: Cytotoxicity to tumor cells, MTT assay; assay type: cell-based; details: Mus musculus, mean ± S.D (n = 3)
Experimental: Mouse melanoma cell line B16-F10 (ATCC® Number: CRL-6475™) and mouse cell line CT26.WT (TCM37) were obtained from Cell Culture Center of the Institute of Basic Medical Sciences, Chinese Academy of Medical Sciences. The cells were maintained in DMEM supplemented with 10% (v/v) heat-inactivated fetal bovine serum (FBS) in a humidified 5% CO2 atmosphere at 37 °C. Tumor cells were plated in 96-well plate with a density of 5 × 10^3 cells/well in 100 μL. […] The medium was subsequently discarded, and 150 μL of DMSO was added to dissolve the formazan crystals. The absorbance was measured at 570 nm using a Molecular Devices Spectra Max M5 (Molecular Devices, USA).

[3] = molecular target: PD-1 and PD-L1 binding; parameters: method as in PMID 27083005; details: HTRF binding assay; cited from earlier work
[4] = tested on: Human CD3+ cells; assay: IFN-γ secretion by human CD3+ cells in vitro (ELISA), rescue of PD-L1-mediated inhibition; assay type: cell-based; details: for IFN-γl: aCD3/aCD28 1 μg/mL + PD-L1 protein 10 nM, 72 h, single samples
Experimental: Human CD3^+ cells were plated in the 96-well plate with a density of 1 × 10^5 cells/well in 100 μL of DMEM containing 10% FBS. The 50 μL of aCD3 and aCD28 (final concentration of 1 μg/mL for each) were added into 96-well plate without or with 50 μL of human PD-L1 protein (final concentation of 10 nM). […] The supernatants were collected for detection of IFN-γ by using human IFN-γ ELISA Kit.

[5] = tested on: B16-F10; assay: Cytotoxicity to tumor cells, MTT assay; assay type: cell-based; details: Mus musculus, 24 h, mean ± S.D (n = 3), read-out: IC50 B16F10
[6] = tested on: T lymphocytes in tumors; assay: Flow cytometry of T lymphocytes in tumors from melanoma-bearing mice; assay type: in vivo; details: for % Treg of CD4^+ / % CD3^+ of lymphocyte / % CD4^+ of CD3^+ / % CD8^+ of CD3^+ / % CD8^+IFN-γ of CD3D^+CD8^+: tumor, day 20, single mice; for % Treg of CD4^+: Treg = CD4+CD25+CD127low/-
[7] = tested on: B16-F10 tumors; assay: B16-F10 tumor isograft model, tumor growth; assay type: in vivo, mice; details: for Tumor volume / Tumor weight: single mice
[8] = tested on: IFN-γ; assay: Plasma IFN-γ level in melanoma-bearing mice (ELISA); assay type: in vivo
[9] = tested on: Human CD3+ cells; assay: Cytotoxicity to human CD3+ cells, CellTiter-Glo (CTG) assay; assay type: cell-based; details: 72 h, aCD3/aCD28 1 μg/mL, mean ± S.D (n = 3)
Experimental: Human CD3^+ cells with the purity above 95% were provided by LDEBIO company (Guangzhou, China). CD3^+ cells were plated in the 96-well plate with a density of 1 × 10^5 cells/well in 100 μL of DMEM medium containing 10% FBS. The 50 μL of anti-CD3 antibody and anti-CD28 antibody (aCD3 and aCD28, final concentration of 1 μg/mL for each) were added into 96-well plate. […] CellTiter-Glo (CTG) reagent was added into the wells to measure CD3^+ cell viability.

[10] = treatment groups (30 and 60 mg/kg), P < 0.05, n = 6
[11] = 30 mg/kg oral twice daily, day 20

SMILES: COc1nc(OCc2cccc(-c3ccccc3)c2C)ccc1CNCCNC(C)=O [PCC0208025, N-(2-{[2-Methoxy-6-(2-methyl-biphenyl-3-ylmethoxy)-pyridin-3-ylmethyl]-amino}-ethyl)-acetamide]
- concentration at 1 h ([1]; 1h, n = 5, read-out: average concentration in plasma): ~4.36 nM
- concentration at 1 h ([1]; 1h, single mice, read-out: Concentration in Plasma): 3.8 nM
- concentration at 3 h ([1]; 3h, n = 5, read-out: average concentration in plasma): ~3.94 nM
- concentration at 3 h ([1]; 3h, single mice, read-out: Concentration in Plasma): 4.16 nM
- average concentration in tumor ([1]; 1h, n = 5): about 160.7 nmol/kg
- Concentration in Tumor ([1]; 1h, single mice): 167.3 nmol/kg and 207.3 nmol/kg and 154.8 nmol/kg and 139.1 nmol/kg and 136.3 nmol/kg
- average concentration in tumor ([1]; 3h, n = 5): ~196.7 nmol/kg
- Concentration in Tumor ([1]; 3h, single mice): 185.3 nmol/kg and 206.5 nmol/kg and 218.5 nmol/kg and 178.7 nmol/kg
- average concentration in tumor ([1]; 8h, n = 5): ~127.3 nmol/kg
- Concentration in Tumor ([1]; 8h, single mice): 132.4 nmol/kg and 146.7 nmol/kg and 123.3 nmol/kg and 103.8 nmol/kg and 133.2 nmol/kg
- IC50 ([2]; 24 h): 21.9 ± 2.9 µM
- IC50 ([2]; 48 h): 15.3 ± 3.4 µM
- IC50 [3]: 0.018 µM
- PD-L1-mediated inhibition of IFN-γ production ([4]; 0.01 to 1 μM, vs aCD3/aCD28 and PD-L1 group, P < 0.05, n = 6): markedly rescued
- IFN-γl ([4]; substance 0.1 mM (so in the source)): 768.3 pg/mL and 1056.6 pg/mL and 850.5 pg/mL and 945.6 pg/mL and 689.7 pg/mL and 789.4 pg/mL
- IFN-γl ([4]; substance 1 mM (so in the source)): 798.3 pg/mL and 824.3 pg/mL and 997.0 pg/mL and 723.5 pg/mL and 908.8 pg/mL and 857.7 pg/mL
- IFN-γl ([4]; substance 10 mM (so in the source)): 468.7 pg/mL and 398.5 pg/mL and 576.3 pg/mL and 435.3 pg/mL and 587.5 pg/mL and 523.4 pg/mL
- IC50 [5]: 32.1 ± 2.3 µM
- percentage of CD4^+CD25^+CD127^low/− (Treg) in tumor compared with the control group ([6]; 30 mg/kg and 60 mg/kg, P < 0.05, n = 6): significantly decreased
- percentage of CD3^+CD4^+ T cells in tumor compared with the control group ([6]; 60 mg/kg group, P < 0.05, n = 6): significant decreases
- percentage of CD3^+ T cells in tumor compared with the control group [6, 10]: markedly increased
- percentage of CD3^+CD8^+ T cells in tumor compared with the control group [6, 10]: markedly increased
- percentage of CD8^+IFN-γ^+ T cells in tumor compared with the control group [6, 10]: markedly increased
- % Treg of CD4^+ ([6]; 30 mg/kg, 30 mg/kg): 26.25% and 33.66% and 35.98% and 35.44% and 36.86% and 31.41%
- % CD3^+ of lymphocyte ([6]; 30 mg/kg, 30 mg/kg): 58.95% and 61.13% and 52.42% and 62.48% and 58.92% and 54.72%
- % CD4^+ of CD3^+ ([6]; 30 mg/kg, 30 mg/kg): 38.97% and 39.86% and 36.50% and 29.65% and 37.02% and 40.10%
- % CD8^+ of CD3^+ ([6]; 30 mg/kg, 30 mg/kg): 38.80% and 39.05% and 45.77% and 42.49% and 39.23% and 36.71%
- % CD8^+IFN-γ of CD3D^+CD8^+ ([6]; 30 mg/kg, 30 mg/kg): 27.98% and 25.40% and 24.84% and 24.39% and 22.29% and 22.23%
- % Treg of CD4^+ ([6]; 60 mg/kg, 60 mg/kg): 32.63% and 30.22% and 32.76% and 31.72% and 28.26%
- % CD3^+ of lymphocyte ([6]; 60 mg/kg, 60 mg/kg): 72.64% and 70.58% and 61.04% and 62.21% and 61.98% and 64.77%
- % CD4^+ of CD3^+ ([6]; 60 mg/kg, 60 mg/kg): 36.42% and 31.49% and 39.77% and 27.21% and 38.87% and 37.34%
- % CD8^+ of CD3^+ ([6]; 60 mg/kg, 60 mg/kg): 40.72% and 50.51% and 43.82% and 50.59% and 42.04% and 42.77%
- % CD8^+IFN-γ of CD3D^+CD8^+ ([6]; 60 mg/kg, 60 mg/kg): 30.80% and 35.94% and 30.46% and 29.24% and 28.35% and 27.49%
- tumor weight compared with the control group ([7]; 30 mg/kg and 60 mg/kg, P < 0.05, n = 8): significantly decreased
- tumor volumes compared with the control group ([7]; 30 mg/kg and 60 mg/kg, day 20, P < 0.05, n = 8): significantly decreased
- Tumor volume ([7]; 30 mg/kg oral twice daily, day 7): 99.3 mm^3 and 102.9 mm^3 and 86.2 mm^3 and 112.1 mm^3 and 129.3 mm^3 and 84.9 mm^3 and 90.7 mm^3 and 100.1 mm^3
- Tumor volume ([7]; 30 mg/kg oral twice daily, day 9): 94.0 mm^3 and 102.4 mm^3 and 154.1 mm^3 and 112.8 mm^3 and 131.0 mm^3 and 131.8 mm^3 and 105.3 mm^3 and 143.3 mm^3
- Tumor volume [7, 11]: 898.0 mm^3 and 1417.3 mm^3 and 1288.9 mm^3 and 1376.0 mm^3 and 1578.0 mm^3 and 1342.0 mm^3 and 1122.6 mm^3 and 879.0 mm^3
- Tumor weight [7, 11]: 1578.0 mg
- IR (inhibition rate of tumor growth) according to tumor weight ([7]; 60 mg/kg oral gavage twice daily, day 20): 50.1%
- Tumor volume ([7]; 60 mg/kg oral twice daily, day 7): 88.0 mm^3 and 80.2 mm^3 and 120.2 mm^3 and 108.0 mm^3 and 102.8 mm^3 and 96.6 mm^3 and 115.1 mm^3 and 94.6 mm^3
- Tumor weight ([7]; 60 mg/kg oral twice daily, day 20): 1678.4 mg
- IFN-γ level in plasma ([8]; 60 mg/kg oral twice daily, day 20, single mice): 1678.5 pg/mL and 1589.6 pg/mL and 1467.7 pg/mL and 1256.8 pg/mL and 1756.2 pg/mL and 1476.1 pg/mL
- plasma IFN-γ levels compared with the control group ([8]; 30 and 60 mg/kg, P < 0.05, n = 6): markedly elevated
- IC50 [9]: 10.3 ± 1.3 µM
